Assays:
Assay type in all cases: in vivo
Veronica persica = assay: Test Example 5: herbicidal effect by foliage application, plastic box (symbol R); conditions: 320 g/ha, 3 weeks after application
Procedure, shortened: (§1)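 After sowing into sterilized diluvial soil and growing two weeks under glass at 25° C. to 30° C., seedlings receive a uniform foliar spray of diluted emulsion. Damage is judged visually three weeks on.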

Apera spica-venti = assay: Test Example 5: herbicidal effect by foliage application, plastic box (symbol L); conditions: 320 g/ha, 3 weeks after application
Procedure, shortened: as §1

Digitaria ciliaris = assay: Test Example 5: herbicidal effect by foliage application, plastic box (symbol F); conditions: 320 g/ha, 3 weeks after application
Procedure, shortened: as §1

Monochoria vaginalis [1] = assay: Test Example 1: herbicidal activity, application before weed generation in submerged conditions (symbol C); conditions: application herbicide amount 320 g/ha
Procedure, shortened: (§2)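 Scores run 0 to 5 by herbicidal ratio, with 5 meaning 90% or more and 0 meaning 5% or lower, read 3 weeks after treatment. Compound was applied as a diluted emulsion to the water surface of submerged alluvial-soil pots on the day weed seeds were sown.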

transplanted rice plant = assay: Test Example 1: effect on crop, application before weed generation in submerged conditions (symbol a); conditions: application herbicide amount 320 g/ha
Procedure, shortened: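 Alluvial soil pots flooded to 4 cm water, sown with Echinochloa oryzacola, Scirpus juncoides and Monochoria vaginalis, then transplanted with 2.5 leaf stage rice seedlings; pre-emergence application. Greenhouse 25° C. to 30° C.; scored 0–5 by herbicidal ratio 3 weeks after application.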

[2] = test system: Echinochloa oryzacola Vasing.; assay: Test Example 1: herbicidal activity, application before weed generation in submerged conditions (symbol A); conditions: application herbicide amount 320 g/ha
Procedure, shortened: as §2

Alopecurus myosuroides = assay: Test Example 5: herbicidal effect by foliage application, plastic box (symbol J); conditions: 320 g/ha, 3 weeks after application
Procedure, shortened: as §1

Scirpus juncoides [3] = assay: Test Example 2: herbicidal activity, application during weed generation in submerged conditions (symbol B); conditions: Table 23; application herbicide amount 320 g/ha; grade 0-5 by criteria of Test Example 1
Method: (§3) Herbicidal Activity Test by Application During Weed Generation in Submerged Conditions
(§4) After alluvial soil was placed into 1/10000 are of Wagner pot, water was poured and mixed to form a submerged condition having a water depth of 4 cm. Seeds of Echinochloa oryzacola Vasing., Scirpus juncoides, and Monochoria vaginalis were sowed in a mixed manner in the above pot and the pot was placed in the greenhouse of 25° C. to 30° C. to grow the plants. When Echinochloa oryzacola Vasing., Scirpus juncoides, and Monochoria vaginalis were grown to one leaf stage to two leaf stage, the emulsion agent of the compound of the present invention prepared in accordance with Formulation Example 2 was diluted with water so as to be a predetermined herbicide amount and the diluted emulsion agent was applied to the surface of the water. 3 weeks later from the herbicide application, the effect to each plant was investigated in accordance with the criteria of Test Example 1.

Lolium multiflorum Lam. = assay: Test Example 5: herbicidal effect by foliage application, plastic box (symbol K); conditions: 320 g/ha, 3 weeks after application
Procedure, shortened: as §1

Scirpus juncoides [4] = assay: Test Example 1: herbicidal activity, application before weed generation in submerged conditions (symbol B); conditions: application herbicide amount 320 g/ha
Procedure, shortened: as §2

beet = assay: Test Example 5: effect on crop by foliage application, plastic box (symbol f); conditions: 320 g/ha, 3 weeks after application
Procedure, shortened: (§5)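 Soil: sterilized diluvial. Container: plastic box, 21 × 13 cm, 7 cm deep. Sowing: spot-like, ~1.5 cm cover. Growth: greenhouse, 25° C. to 30° C.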

Avena fatua = assay: Test Example 5: herbicidal effect by foliage application, plastic box (symbol I); conditions: 320 g/ha, 3 weeks after application
Procedure, shortened: as §1

[5] = test system: Echinochloa crus-galli var. crus-galli; assay: Test Example 5: herbicidal effect by foliage application, plastic box (symbol H); conditions: 320 g/ha, 3 weeks after application
Procedure, shortened: as §1

Chenopodium album = assay: Test Example 5: herbicidal effect by foliage application, plastic box (symbol O); conditions: 320 g/ha, 3 weeks after application
Procedure, shortened: as §1

Galium spurium = assay: Test Example 5: herbicidal effect by foliage application, plastic box (symbol Q); conditions: 320 g/ha, 3 weeks after application
Procedure, shortened: as §1

Stellaria media = assay: Test Example 5: herbicidal effect by foliage application, plastic box (symbol P); conditions: 320 g/ha, 3 weeks after application
Procedure, shortened: as §1

wheat = assay: Test Example 5: effect on crop by foliage application, plastic box (symbol e); conditions: 320 g/ha, 3 weeks after application
Procedure, shortened: as §5

Monochoria vaginalis [6] = assay: Test Example 2: herbicidal activity, application during weed generation in submerged conditions (symbol C); conditions: Table 23; application herbicide amount 320 g/ha; grade 0-5 by criteria of Test Example 1
Method: as §3, §4

rapeseed = assay: Test Example 5: effect on crop by foliage application, plastic box (symbol g); conditions: 320 g/ha, 3 weeks after application
Procedure, shortened: as §5

corn = assay: Test Example 5: effect on crop by foliage application, plastic box (symbol c); conditions: 320 g/ha, 3 weeks after application
Procedure, shortened: as §5

rice plant = assay: Test Example 5: effect on crop by foliage application, plastic box (symbol b); conditions: 320 g/ha, 3 weeks after application
Procedure, shortened: as §5

[7] = test system: Echinochloa oryzacola Vasing.; assay: Test Example 2: herbicidal activity, application during weed generation in submerged conditions (symbol A); conditions: Table 23; application herbicide amount 320 g/ha; grade 0-5 by criteria of Test Example 1
Method: as §3, §4

soybean = assay: Test Example 5: effect on crop by foliage application, plastic box (symbol d); conditions: 320 g/ha, 3 weeks after application
Procedure, shortened: as §5

Setaria viridis = assay: Test Example 5: herbicidal effect by foliage application, plastic box (symbol G); conditions: 320 g/ha, 3 weeks after application
Procedure, shortened: as §1

Abutilon theophrasti = assay: Test Example 5: herbicidal effect by foliage application, plastic box (symbol M); conditions: 320 g/ha, 3 weeks after application
Procedure, shortened: as §1

Amaranthus retroflexus = assay: Test Example 5: herbicidal effect by foliage application, plastic box (symbol N); conditions: 320 g/ha, 3 weeks after application
Procedure, shortened: as §1

Leptochloa chinensis = assay: Test Example 3: herbicidal effect by foliage application, Wagner pot (symbol D); conditions: application herbicide amount 320 g/ha, Table 24
Procedure, shortened: (§6)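 Herbicidal activity was rated three weeks after a foliar spray of diluted emulsion concentrate, applied at a predetermined dose to plants grown for 14 days from seed in waterlogged alluvial soil within a 25–30 °C greenhouse.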

[8] = test system: Echinochloa crus-galli var. crus-galli; assay: Test Example 3: herbicidal effect by foliage application, Wagner pot (symbol H); conditions: application herbicide amount 320 g/ha, Table 24
Procedure, shortened: as §6

Cyperus difformis = assay: Test Example 3: herbicidal effect by foliage application, Wagner pot (symbol E); conditions: application herbicide amount 320 g/ha, Table 24
Procedure, shortened: as §6

[9] = test system: directly sowed rice plant; assay: Test Example 3: effect on crop by foliage application, Wagner pot (symbol b); conditions: application herbicide amount 320 g/ha, Table 24
Procedure, shortened: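 Greenhouse culture at 25–30 °C of seeded rice, Cyperus difformis, Leptochloa chinensis and Echinochloa crus-galli var. crus-galli, in alluvial soil held under 0.1–0.5 cm of water in a Wagner pot.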

CC(CC1CC(O)=C(c2c(C)cc(C)cc2C)C1=O)=NOCc1c(F)cccc1Cl (centres unmarked) [1-115]
R: Veronica persica, herbicidal effect (criteria 0-5) (Veronica persica): 1 (Herbicidal ratio of 5% or higher and lower than 20%) | L: Apera spica-venti, herbicidal effect (criteria 0-5) (Apera spica-venti): 4 (Herbicidal ratio of 70% or higher and lower than 90%) | F: Digitaria ciliaris, herbicidal effect (criteria 0-5) (Digitaria ciliaris): 2 (Herbicidal ratio of 20% or higher and lower than 40%) | Herbicidal effect grade, C: Monochoria vaginalis (Monochoria vaginalis [1]): 4 (Herbicidal ratio of 70% or higher and lower than 90%) | Effect grade on crop, a: transplanted rice plant (transplanted rice plant): 1 (Herbicidal ratio of 5% or higher and lower than 20%) | Herbicidal effect grade, A: Echinochloa oryzacola Vasing. [2]: 5 (Herbicidal ratio of 90% or more (almost completely withered)) | J: Alopecurus myosuroides, herbicidal effect (criteria 0-5) (Alopecurus myosuroides): 3 (Herbicidal ratio of 40% or higher and lower than 70%) | Herbicidal effect grade, B: Scirpus juncoides (Scirpus juncoides [3]): 2 (Herbicidal ratio of 20% or higher and lower than 40%) | K: Lolium multiflorum Lam., herbicidal effect (criteria 0-5) (Lolium multiflorum Lam.): 3 (Herbicidal ratio of 40% or higher and lower than 70%) | Herbicidal effect grade, B: Scirpus juncoides (Scirpus juncoides [4]): 3 (Herbicidal ratio of 40% or higher and lower than 70%) | f: beet, effect on crop (criteria 0-5) (beet): 0 (Herbicidal ratio of 5% or lower (almost no effect)) | I: Avena fatua, herbicidal effect (criteria 0-5) (Avena fatua): 2 (Herbicidal ratio of 20% or higher and lower than 40%) | H: Echinochloa crus-galli var. crus-galli, herbicidal effect (criteria 0-5) [5]: 1 (Herbicidal ratio of 5% or higher and lower than 20%) | O: Chenopodium album, herbicidal effect (criteria 0-5) (Chenopodium album): 0 (Herbicidal ratio of 5% or lower (almost no effect)) | Q: Galium spurium, herbicidal effect (criteria 0-5) (Galium spurium): 0 (Herbicidal ratio of 5% or lower (almost no effect)) | P: Stellaria media, herbicidal effect (criteria 0-5) (Stellaria media): 1 (Herbicidal ratio of 5% or higher and lower than 20%) | e: wheat, effect on crop (criteria 0-5) (wheat): 0 (Herbicidal ratio of 5% or lower (almost no effect)) | Herbicidal effect grade, C: Monochoria vaginalis (Monochoria vaginalis [6]): 0 (Herbicidal ratio of 5% or lower (almost no effect)) | g: rapeseed, effect on crop (criteria 0-5) (rapeseed): 5 (Herbicidal ratio of 90% or more (almost completely withered)) | c: corn, effect on crop (criteria 0-5) (corn): 0 (Herbicidal ratio of 5% or lower (almost no effect)) | b: directly sowed rice plant, effect on crop (criteria 0-5) (rice plant): 1 (Herbicidal ratio of 5% or higher and lower than 20%) | Herbicidal effect grade, A: Echinochloa oryzacola Vasing. [7]: 3 (Herbicidal ratio of 40% or higher and lower than 70%) | d: soybean, effect on crop (criteria 0-5) (soybean): 0 (Herbicidal ratio of 5% or lower (almost no effect)) | G: Setaria viridis, herbicidal effect (criteria 0-5) (Setaria viridis): 1 (Herbicidal ratio of 5% or higher and lower than 20%) | M: Abutilon theophrasti, herbicidal effect (criteria 0-5) (Abutilon theophrasti): 0 (Herbicidal ratio of 5% or lower (almost no effect)) | N: Amaranthus retroflexus, herbicidal effect (criteria 0-5) (Amaranthus retroflexus): 0 (Herbicidal ratio of 5% or lower (almost no effect))

CC(=O)CC1CC(O)=C(c2c(C)cc(-n3cncn3)cc2C)C1=O (centres unmarked) [7-026]
R: Veronica persica, herbicidal effect (criteria of Test Example 1) (Veronica persica): 0 (Herbicidal ratio of 5% or lower (almost no effect)) | L: Apera spica-venti, herbicidal effect (criteria of Test Example 1) (Apera spica-venti): 0 (Herbicidal ratio of 5% or lower (almost no effect)) | F: Digitaria ciliaris, herbicidal effect (criteria of Test Example 1) (Digitaria ciliaris): 0 (Herbicidal ratio of 5% or lower (almost no effect)) | D (Leptochloa chinensis) herbicidal effect grade (Leptochloa chinensis): 3 (Herbicidal ratio of 40% or higher and lower than 70%) | Herbicidal effect grade, C: Monochoria vaginalis (Monochoria vaginalis [1]): 0 (Herbicidal ratio of 5% or lower (almost no effect)) | Effect grade on crop, a: transplanted rice plant (transplanted rice plant): 0 (Herbicidal ratio of 5% or lower (almost no effect)) | Herbicidal effect grade, A: Echinochloa oryzacola Vasing. [2]: 3 (Herbicidal ratio of 40% or higher and lower than 70%) | H (Echinochloa crus-galli var. crus-galli) herbicidal effect grade [8]: 0 (Herbicidal ratio of 5% or lower (almost no effect)) | E herbicidal effect grade (Cyperus difformis): 0 (Herbicidal ratio of 5% or lower (almost no effect)) | J: Alopecurus myosuroides, herbicidal effect (criteria of Test Example 1) (Alopecurus myosuroides): 1 (Herbicidal ratio of 5% or higher and lower than 20%) | K: Lolium multiflorum Lam., herbicidal effect (criteria of Test Example 1) (Lolium multiflorum Lam.): 1 (Herbicidal ratio of 5% or higher and lower than 20%) | Herbicidal effect grade, B: Scirpus juncoides (Scirpus juncoides [4]): 0 (Herbicidal ratio of 5% or lower (almost no effect)) | f: beet, effect on crop (criteria of Test Example 1) (beet): 0 (Herbicidal ratio of 5% or lower (almost no effect)) | I: Avena fatua, herbicidal effect (criteria of Test Example 1) (Avena fatua): 0 (Herbicidal ratio of 5% or lower (almost no effect)) | H: Echinochloa crus-galli var. crus-galli, herbicidal effect (criteria of Test Example 1) [5]: 1 (Herbicidal ratio of 5% or higher and lower than 20%) | O: Chenopodium album, herbicidal effect (criteria of Test Example 1) (Chenopodium album): 0 (Herbicidal ratio of 5% or lower (almost no effect)) | b (directly sowed rice plant) effect on crop grade [9]: 0 (Herbicidal ratio of 5% or lower (almost no effect)) | Q: Galium spurium, herbicidal effect (criteria of Test Example 1) (Galium spurium): 0 (Herbicidal ratio of 5% or lower (almost no effect)) | P: Stellaria media, herbicidal effect (criteria of Test Example 1) (Stellaria media): 0 (Herbicidal ratio of 5% or lower (almost no effect)) | e: wheat, effect on crop (criteria of Test Example 1) (wheat): 0 (Herbicidal ratio of 5% or lower (almost no effect)) | g: rapeseed, effect on crop (criteria of Test Example 1) (rapeseed): 0 (Herbicidal ratio of 5% or lower (almost no effect)) | c: corn, effect on crop (criteria of Test Example 1) (corn): 0 (Herbicidal ratio of 5% or lower (almost no effect)) | b: directly sowed rice plant, effect on crop (criteria of Test Example 1) (rice plant): 0 (Herbicidal ratio of 5% or lower (almost no effect)) | d: soybean, effect on crop (criteria of Test Example 1) (soybean): 0 (Herbicidal ratio of 5% or lower (almost no effect)) | G: Setaria viridis, herbicidal effect (criteria of Test Example 1) (Setaria viridis): 0 (Herbicidal ratio of 5% or lower (almost no effect)) | M: Abutilon theophrasti, herbicidal effect (criteria of Test Example 1) (Abutilon theophrasti): 0 (Herbicidal ratio of 5% or lower (almost no effect)) | N: Amaranthus retroflexus, herbicidal effect (criteria of Test Example 1) (Amaranthus retroflexus): 0 (Herbicidal ratio of 5% or lower (almost no effect))

Source: patent US11000033B2, “Ketone or oxime compound, and herbicide” (NISSAN CHEMICAL CORPORATION, priority 2014, dated 2021)
